According to patent US20060019936A1 (priority 2004, published 2006):
“Also recorded” adds a separate entry of the source. Like-named read-outs stand apart in the source and are kept apart here.

How the values were obtained:
[1] = system: MDA-MB231 (ER−) breast cancer cells; type: cell-based
[2] = molecular target: T1, rabbit uterine ER (Oryctolagus cuniculus, UniProt G1SML6); assay: Radiometric competitive binding assay for the ER (RBA); details: RBA for estradiol is 100
T1 construct: from tissue; host or cells: rabbit uterus
T1 sequence (G1SML6 1-598): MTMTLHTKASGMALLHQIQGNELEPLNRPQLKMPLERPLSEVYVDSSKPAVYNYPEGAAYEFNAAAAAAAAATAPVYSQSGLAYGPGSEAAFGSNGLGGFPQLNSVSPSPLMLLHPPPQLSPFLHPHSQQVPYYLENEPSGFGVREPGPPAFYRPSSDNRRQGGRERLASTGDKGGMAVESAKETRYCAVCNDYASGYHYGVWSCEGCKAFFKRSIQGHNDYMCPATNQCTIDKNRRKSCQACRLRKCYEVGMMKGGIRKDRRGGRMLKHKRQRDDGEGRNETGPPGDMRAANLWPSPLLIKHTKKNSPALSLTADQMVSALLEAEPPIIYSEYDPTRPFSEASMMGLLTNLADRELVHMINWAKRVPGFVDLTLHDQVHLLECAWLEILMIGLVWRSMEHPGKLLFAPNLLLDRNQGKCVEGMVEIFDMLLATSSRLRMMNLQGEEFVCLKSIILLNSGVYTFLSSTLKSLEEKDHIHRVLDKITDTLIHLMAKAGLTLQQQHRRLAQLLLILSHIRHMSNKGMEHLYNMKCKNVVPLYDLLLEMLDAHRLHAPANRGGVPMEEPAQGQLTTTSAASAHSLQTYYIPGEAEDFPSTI

[3] = molecular target: T2, portion of the ER containing the estradiol binding site (Homo sapiens, UniProt P03372); assay: Electrophoretic gel mobility shift assay of DNA adducts with ER
T2 sequence (P03372 311-547 limits assumed): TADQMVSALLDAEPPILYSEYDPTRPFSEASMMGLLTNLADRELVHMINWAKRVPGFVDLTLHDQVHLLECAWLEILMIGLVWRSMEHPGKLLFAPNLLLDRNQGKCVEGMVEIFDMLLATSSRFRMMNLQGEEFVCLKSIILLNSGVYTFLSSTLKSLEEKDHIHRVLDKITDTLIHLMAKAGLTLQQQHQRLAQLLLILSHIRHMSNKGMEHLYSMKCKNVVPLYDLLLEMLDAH

[4] = system: MCF-7 (ER+) breast cancer cells; assay: Toxicity toward MCF-7 breast cancer cells; type: cell-based
[5] = pH 7.4
[6] = system: self complementary octamer deoxyoligonucleotide; assay: Reactivity with DNA (piperidine labile sites); type: biochemical
[7] = system: LNCaP cells; type: cell-based, human
[8] = system: p45 Skp2; type: cell-based, human
[9] = system: LNCaP cells; assay: DNA fragmentation by agarose gel electrophoresis; type: cell-based, human; details: 20 μM, 24 h exposure
[10] = system: Bid; assay: Bid cleavage analysis; type: cell-based, human; details: LNCaP cells
[11] = system: LNCaP cells; type: cell-based, human; remark: listed apart in the source
[12] = system: p27 (Kip1); type: cell-based, human
[13] = system: PARP; type: cell-based, human
[14] = system: p21 (WAF1/Cip1); type: cell-based, human
[15] = system: p70S6K; assay: Phosphorylation status of p70S6K in LNCaP cells; type: cell-based, human
[16] = system: c-Myc; assay: c-Myc protein levels in LNCaP cells; type: cell-based, human
[17] = system: LNCaP cells; assay: Cell cycle analysis by flow cytometry; type: cell-based, human

SMILES | relative binding affinity (RBA) for the ER [2] | complex formation of covalent DNA adducts with ER [3] | logD [5] | toxicity [1] | toxicity [4] | DNA modification, cleaved by piperidine [6] | also measured
CC12CCC3c4ccc(O)cc4CC(CCCCCCNCCNC(=N)NCCCc4ccc(N(CCCl)CCCl)cc4)C3C1CCC2O (centres unmarked) [Compound 5] | low RBAs | form complexes; also recorded: virtually all of the modified oligonucleotide formed a slowly migrating band | – | – | – | – | toxicity at the highest dose [1]: neither compound showed significant toxicity; toxicity at the highest dose [4]: neither compound showed significant toxicity
CC12CCC3c4ccc(O)cc4CC(CCCCCCOC(=O)NCCCc4ccc(N(CCCl)CCCl)cc4)C3C1CCC2O (centres unmarked) [Compound 9] | low RBAs | – | > 5 | low toxicity | low toxicity | 3% | –
O=C(O)CCCc1ccc(N(CCCl)CCCl)cc1 [Chlorambucil, reference compound] | – | – | – | – | – | – | changes in LNCaP cell shape [7]: no effect on cellular shape; levels of Skp2 ([8]; LNCaP cells, 20 μM, up to 15 h): unaffected; DNA fragmentation [9]: No changes; Bid cleavage [10]: No changes; apoptotic response ([11]; LNCaP cells, single agent): fails to induce apoptosis; levels of p27 ([12]; LNCaP cells, 20 μM, up to 15 h): without effect; cleavage of PARP ([13]; 20 μM, LNCaP cells): No cleavage; levels of p21 ([14]; LNCaP cells, 20 μM, up to 15 h): potent inducer of p21
CC12CCC3c4ccc(O)cc4CC(CCCCCCNC(=O)CCCc4ccc(N(CCCl)CCCl)cc4)C3C1CCC2O (centres unmarked) [Compound 14] | low RBAs | – | > 5 | low toxicity | low toxicity | 14% | –
COCCN(CCOC)c1ccc(CCCNC(=O)OCCNCCCCCCC2CC3(C)C(O)CCC3C3CCC4=CC(=O)CCC4=C23)cc1 (stereo not drawn) [11β-dimethoxy] | – | – | – | – | – | – | effect on p70S6K [15]: inhibits p70S6K; changes in LNCaP cell shape [7]: slight contraction, which was reversed by 24 h; levels of Skp2 [8]: decreased; levels of the c-Myc protein [16]: causes c-Myc levels to drop; apoptotic response [11]: did not activate an apoptotic response; also recorded: does not induce markers of apoptosis; toxic effect / cell killing [11]: transient toxic effect but does not kill cells; levels of p27 [12]: increased; LNCaP cells in G1 ([17]; 10 uM for 20 hr, flow cytometry): > 90%; cell cycle arrest ([17]; LNCaP cells): halt, albeit transiently, the growth of LNCaP cells in the G1 phase of the cell cycle; cleavage of PARP [13]: No cleavage; eventual levels of p21 [14]: recovered to basal levels; initial change in levels of p21 [14]: initially decreased
O=P(NCCO)(c1ccccc1)c1ccccc1 [Compound 12] | comparable affinities | – | high logD values | low toxicity | low toxicity | – | –
CC12CCC3c4ccc(O)cc4CC(CCCCCCNCCCCc4ccc(N(CCCl)CCCl)cc4)C3C1CCC2O (centres unmarked) [Compound 15] | 40 | form complexes | – | toxicity similar to that of 1 | toxicity similar to that of 1 | – | differential toxicity MCF-7 (ER+) versus MDA-MB231 (ER−) [4]: greater toxicity toward the ER-positive MCF-7 cells
CC12CCC3c4ccc(O)cc4CC(CCCCCCNC(=N)NCCCc4ccc(N(CCCl)CCCl)cc4)C3C1CCC2O (centres unmarked) [Compound 7] | comparable affinities | form complexes | – | – | – | – | toxicity at the highest dose [1]: neither compound showed significant toxicity; toxicity at the highest dose [4]: neither compound showed significant toxicity
CC(C)(C)[Si](C)(C)OCCNP(=O)(c1ccccc1)c1ccccc1 [Compound 13] | comparable affinities | form complexes | – | toxicity similar to that of 1 | toxicity similar to that of 1 | 79% | differential toxicity MCF-7 (ER+) versus MDA-MB231 (ER−) [4]: greater toxicity toward the ER-positive MCF-7 cells
CC12CCC3c4ccc(O)cc4CC(CCCCCCNCCOC(=O)NCCCc4ccc(N(CCCl)CCCl)cc4)C3C1CCC2O (stereo not drawn) [Compound 1, 7α-{N-(2-(N-((N,N-bis-2-chloroethylaminophenyl)propyl)-carbamoyloxy)ethyl)aminohexyl}-3,17β-dihydroxyestra-1,3,5(10)-triene] | excellent affinity | – | – | – | – | – | complex formation of covalent DNA adducts with ER ([3]; gel mobility shift, band eliminated by excess estradiol): form complexes; also recorded: greatest affinity for the ER-LBD; differential toxicity MCF-7 (ER+) versus MDA-MB231 (ER−) ([4]; comparison of the two cell lines): significantly more toxic toward MCF-7 cells than MDA-MB231 cells; also recorded: largest differential toxicity
